Measured values from PMC5840262, “Design, Synthesis and Evaluation of Branched RRWQWR-Based Peptides as Antibacterial Agents Against Clinically Relevant Gram-Positive and Gram-Negative Pathogens” (Frontiers in Microbiology, 2018).
≈ marks a conversion by molar mass, not a printed value.

How the values were obtained:
[1] = test system: Pseudomonas aeruginosa ATCC 27853 (resistant); format: cell-based
Protocol: (§1) We screened all five peptides against the ATCC reference strains and the clinical isolates according to Method M7-A7 of the National Committee for Clinical Laboratory Standards (CLSI, [2007]). The MIC50 and MBC values were determined using a broth microdilution and growth inhibition method previously reported by Leon-Calvijo et al. ([2015]), with some modifications (Wiegand et al., [2008]). Briefly, the MIC50 experiments comprised a liquid-inhibition growth assay in a sterile, untreated, 96-well flat-bottom tissue culture plate. The bacteria were cultured overnight n Mueller Hinton agar; three colonies were transferred to 8 mL of Mueller Hilton broth and incubated at 37°C until the mid-exponential phase of growth. The turbidity of the cultures was measured and adjusted spectrophotometrically to a McFarland standard of 0.5, and then diluted to a final concentration of 5 × 10^7 colony forming units (CFU) per well. Stock solutions (2,000 μM) of each test peptide were serially diluted to final concentrations (per well) of 200, 100, 50, 25, 12.5, and 6.25 μM. Each concentration was evaluated in duplicate and each assay was performed in triplicate.
(§2) Wells containing Mueller Hilton broth with bacterial inoculum only served as bacterial-growth controls. Additional controls included Mueller Hilton broth alone (as blank) and Mueller Hilton broth with ciprofloxacin (2 μg/mL; as positive control). The microplate was incubated for 24 h at 37°C, and growth inhibition was measured by monitoring the optical density at 620 nm (OD620). The MIC50 was defined as the peptide concentration at which bacterial growth was inhibited by 50%.
(§3) To determine the MBC, an aliquot from each well of the MIC50 assay was spread onto Mueller Hilton agar. After 18 h at 37°C, the concentration that inhibited bacterial growth was determined. Each of these tests was performed four times. MBC was defined as the lowest concentration of peptide at which the number of bacteria was reduced by 99.9% in vitro (European Committee for Antimicrobial Susceptibility Testing, [2000]).

[2] = test system: Pseudomonas aeruginosa ATCC 10145 (sensitive); format: cell-based
Protocol: as §1, §2, §3

[3] = test system: Enterococcus faecalis ATCC 51575 (resistant); format: cell-based
Protocol: as §1, §2, §3

[4] = test system: Enterococcus faecalis ATCC 29212 (sensitive); format: cell-based; conditions: ATCC 29212, 18 h
Protocol: as §1, §2, §3

human erythrocytes = assay: Hemolytic activity; format: cell-based; conditions: red cells of human, 2 h
Protocol: Human erythrocytes collected from the blood samples of healthy humans were harvested by centrifugation for 7 min at 162 × g and washed three times in phosphate-buffered saline (PBS). The erythrocytes (2% hematocrit in PBS) were incubated with peptide molecules at several concentrations (6.25, 12.5, 25, 50, and 100 μM) for 2 h at 37°C. PBS was used as negative control for hemolysis, and sterile distilled water was used as positive control (100% hemolysis). The plate was subsequently centrifuged at 1,459 × g for 10 min at 4°C. Aliquots of the supernatant from each well (75 μL) were carefully transferred to a new sterile 96-well plate, and hemolytic activity was evaluated by measuring the OD492 using an Asys Expert Plus Microplate reader. The experiments were performed in duplicate, and hemolytic activity was calculated for each peptide.

[5] = test system: Gram-negative ATCC strains (K. pneumoniae 13883 and 700603, P. aeruginosa 10145 and 27853)
Text: We determined the therapeutic index of each peptide, which we defined as the ratio of Maximum Hemolytic Activity (Hmax) to MIC50 (Hmax/MIC50).
The therapeutic index (TI) is a ratio of the toxic dose of a substance to its therapeutically-active dose and can be calculated different ways (e.g., LD50/ED50). Here, we calculated a TI value for each peptide against all the Gram-positive or the Gram-negative ATCC strains, by dividing its Hmax by its MIC50 for the given group of strains. […] Additionally, to make our quantitative analysis more robust [geometric mean (Khachatryan et al., [2017]) and fold values], we have included MIC50 values for these peptides against S. aureus and K. pneumoniae that we previously obtained using the same assay, the M7-A7 method of the National Committee for Clinical Laboratory Standards (Leon-Calvijo et al., [2015]).

## CSCC[C@H](NC(=O)[C@H](CCCNC(=N)N)NC(=O)[C@H](Cc1c[nH]c2ccccc12)NC(=O)[C@H](CCC(N)=O)NC(=O)[C@H](Cc1c[nH]c2ccccc12)NC(=O)[C@H](CCCNC(=N)N)NC(=O)[C@H](CCCNC(=N)N)NC(=O)[C@H](CS)NC(=O)[C@H](CCCCN)NC(=O)[C@@H](N)Cc1ccccc1)C(=O)N[C@@H](CCCCN)C(=O)N[C@@H](CCCCN)C(=O)N[C@@H](CC(C)C)C(=O)NCC(=O)N[C@@H](C)C(N)=O [LfcinB (17–31), reference compound]
[1]; ATCC 27853, 18 h
  MBC: >200.0 µM
[1]; ATCC 27853, 24 h
  MIC50: 99.6 µM (≈ 199 µg/mL)
[2]; ATCC 10145, 18 h
  MBC: >200.0 µM
[2]; ATCC 10145, 24 h
  MIC50: 111.7 µM (≈ 223 µg/mL)
[3]; ATCC 51575, 18 h
  MBC: >200.0 µM
[3]; ATCC 51575, 24 h
  MIC50: >200.0 µM
[4]
  MBC: >200.0 µM
Human erythrocytes
  H50, concentration of peptide leading to 50% hemolysis: >100 µM
[5]
  Gm, geometric mean of MIC50 values: 105.5
